Test results taken from US20250090596A1, “MODULATING INFLAMMATION ASSOCIATED WITH FOREIGN BODY RESPONSE” (CRISPR Therapeutics AG, priority 2023, published 2025).
Values joined by “and” are separate entries in the source; they are usually repeats but may differ in a detail not shown here. Equal values may be shown once.

Assays:
[1] = assay type: in vivo, Rat (Rattus norvegicus)
Excerpt: Prior to implant, 30 male athymic nude rats (described in Table 19) were randomly assigned to three groups of ten animals each, and unbiased weight distribution was confirmed. […] At implant, each animal was surgically implanted subcutaneously with two VCTX test articles. The animals then continued to receive their respective chow. Group 1 and 3 animals received their respective chow for 12 weeks, while Group 2 animals only tolerated the tacrolimus-containing chow for 3 weeks. […] At 12 weeks, all animals were switched to standard rodent chow (Teklad 2920X, Envigo).

athymic rats [2] = settings: rat, in vivo
Excerpt: (§1) The administration of the calcineurin inhibitors was achieved through formulation into the chow fed to the animals (athymic rats).

PEC-211 cells = assay: In vitro differentiation of PEC-211 to stage 6 in presence of Tacrolimus, flow cytometry; assay type: cell-based, human; settings: 0.1 μM, 10 days
Method: Evaluation of the PEC-211 cells in the presence of Tacrolimus was performed in vitro. Stage 4 Pancreatic progenitor PEC-211 cells were further differentiated to stage 6 to produce matured islet like cell population in presence of 0.1 μM of Tacrolimus for 10 days. Control PEC-211 cells were not treated with Tacrolimus.

athymic rats [3] = assay: Previous in vivo sensitivity studies of a similar combination product with unmodified cells; settings: unmodified-cell combination product, drug in chow
Excerpt: as §1

VCTX211 implants = assay: GSIS test of VCTX211 implants under calcineurin inhibitor chow; assay type: in vivo, Rat (Rattus norvegicus);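 further: athymic nude rats each carrying two subcutaneous VCTX211-loaded perforated delivery devices, fed calcineurin inhibitor or control chow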
Excerpt: Provided in this Example are in vivo efficacy evaluations of VCTX211 combination products (e.g., genetically modified cells loaded into a perforated delivery device) to assess potential sensitivity of exposure to calcineurin inhibitors. In this study, athymic nude rats each received two implants of compositions comprising genetically modified cells disclosed herein (e.g., VCTX211) each.
VCTX211 test articles (e.g., perforated delivery devices loaded with genetically modified cells disclosed herein) were first generated with pancreatic endoderm cell (PEC-211; e.g., comprising B2M KO and KI of TNFAIP3 and PD-L1; and KO of TXNIP and KI of MANF and HLA-E) aggregates derived from VCTX211 stem cell progenitor cells. To do so, the thaw and culture of PEC-211 aggregates was first performed in roller bottles. On the third day post-thaw, 20 μL aliquots of settled pellet volume (approximately 9×10^6 cells) were prepared and loaded into sterilized PD20 devices (e.g., perforated cell delivery device) to produce VCTX test articles. […] After formulation, test articles were maintained at room temperature in 10 mL storage tubes with media for 2 days.
Prior to implant, 30 male athymic nude rats (described in Table 19) were randomly assigned to three groups of ten animals each, and unbiased weight distribution was confirmed. […] At implant, each animal was surgically implanted subcutaneously with two VCTX test articles. The animals then continued to receive their respective chow. […] At 12 weeks, all animals were switched to standard rodent chow (Teklad 2920X, Envigo).

[4] = individual animals, serum, 90 min after glucose
[5] = individual animals, serum, fasted

SMILES: C=CC[C@@H]1/C=C(\C)C[C@H](C)C[C@H](OC)[C@H]2O[C@@](O)(C(=O)C(=O)N3CCCC[C@H]3C(=O)O[C@H](/C(C)=C/[C@@H]3CC[C@@H](O)[C@H](OC)C3)[C@H](C)[C@@H](O)CC1=O)[C@H](C)C[C@@H]2OC [TAC, tacrolimus]
- animals died or euthanized in extremis ([1]; by 3 weeks, group of 10): 3 animals
- average loss of body weight ([1]; rat, in vivo): 8%
- dose-limiting finding preventing increased exposure (athymic rats [2]): toxicity resulting in inappetence and severe weight loss
- exposure levels versus target levels for prophylactic use in clinical organ transplantation (athymic rats [2]): below target levels
- effect on in vitro differentiation to islet cells (PEC-211 cells): did not affect
- CHGA-NKX6.1+ PDX1+ or- (Pancreatic Progenitor) (PEC-211 cells; Stage 6 cells, flow cytometry): 16.9
- Total CHGA+ (PEC-211 cells; Stage 6 cells, flow cytometry): 76.3
- Total GCG+ (PEC-211 cells; Stage 6 cells, flow cytometry): 36.6
- Total INS+ (PEC-211 cells; Stage 6 cells, flow cytometry): 70.4
- Total NKX6.1+ (PEC-211 cells; Stage 6 cells, flow cytometry): 48.7
- effect on development or function of beta cells derived from the implants (athymic rats [3]): did not appear to affect
- functional development of VCTX211 grafts, evaluated with GSIS tests, compared to control animals (VCTX211 implants; cyclosporine A 12 weeks, tacrolimus 3 weeks): not affected
- C-peptide, 16 Weeks, 60 min (VCTX211 implants; individual animals, serum, 60 min after glucose): 1131 pM and 1798 pM and 720 pM and 1365 pM and 3073 pM and 700 pM
- C-peptide, 12 Weeks, 90 min (VCTX211 implants; [4]): 1933 pM and 1504 pM and 627 pM and 428 pM and 1178 pM and 1271 pM
- C-peptide, 16 Weeks, 90 min (VCTX211 implants; [4]): 1312 pM and 1545 pM and 1271 pM and 1207 pM and 1782 pM and 1140 pM
- C-peptide, 12 Weeks, Fast (VCTX211 implants; [5]): 113 pM and 123 pM and 119 pM and 107 pM and 147 pM and 109 pM
- C-peptide, 16 Weeks, Fast (VCTX211 implants; [5]): 282 pM and 253 pM and 273 pM and 227 pM and 302 pM and 219 pM
